Measured values: US6706663B2, “Herbicidal 3-heterocyclic substituted benzisothiazole and benzisoxazole compounds” (Wyeth, priority 2000, dated 2004)

Columns and labels:
[1] = test system: ABUTH (Abutilon theophrasti); assay: Postemergence herbicidal evaluation; assay type: in vivo, Medic.; settings: postemergence
Summary of the method: (§1)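 Visual 0–9 injury scores versus control plants, covering stand, vigour, malformation, size, chlorosis and general appearance, taken four to five weeks post-spray and averaged over replicate tests. Plants were sprayed at roughly two weeks old and held on greenhouse benches.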

[2] = test system: TRZAWR (Wheat, Winter, cv Riband); assay: Preemergence herbicidal evaluation; assay type: in vivo, Triticum aestivum; settings: rated 4-5 weeks after treatment
Summary of the method: (§2)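 Preemergence soil spray, aq. acetone; greenhouse; visual 0–9 score vs control at 4–5 wk.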

[3] = test system: CHEAL (Chenopodium album); assay: Postemergence herbicidal evaluation; assay type: in vivo, L.; settings: postemergence
Summary of the method: as §1

[4] = test system: CASOB (Cassia obtusifolia); assay: Postemergence herbicidal evaluation; assay type: in vivo, L.; settings: postemergence
Summary of the method: as §1

[5] = test system: AMBEL (Ambrosia artemisifolia); assay: Postemergence herbicidal evaluation; assay type: in vivo, L.; settings: postemergence
Summary of the method: as §1

[6] = test system: GLXMAW (Soybean, Williams); assay: Postemergence herbicidal evaluation; assay type: in vivo, Glycine max, (L.) Merr. cv Williams; settings: postemergence
Summary of the method: as §1

GALAP (Galium aparine) [7] = assay: Postemergence herbicidal evaluation; assay type: in vivo; settings: postemergence
Summary of the method: as §1

ORYSAT (Rice, Tebonnet) [8] = assay: Preemergence herbicidal evaluation; assay type: in vivo, Oryza sativa, (L.) Tebonnet; settings: rated 4-5 weeks after treatment
[9] = test system: IPOHE (Ipomoea hederacea); assay: Postemergence herbicidal evaluation; assay type: in vivo, (L.) Jacq.; settings: postemergence
Summary of the method: as §1

ZEAMX (Corn, Field) = assay: Postemergence herbicidal evaluation; assay type: in vivo, Zea mays, L.; settings: postemergence
Summary of the method: as §1

[10] = test system: ECHCG (Echinochloa crus-galli); assay: Preemergence herbicidal evaluation; assay type: in vivo, (L.) Beau; settings: rated 4-5 weeks after treatment
Summary of the method: as §2

SETVI (Setaria viridis) = assay: Preemergence herbicidal evaluation; assay type: in vivo, (L.) Beau; settings: rated 4-5 weeks after treatment
Summary of the method: as §2

GALAP (Galium aparine) [11] = assay: Preemergence herbicidal evaluation; assay type: in vivo; settings: rated 4-5 weeks after treatment
Summary of the method: as §2

ORYSAT (Rice, Tebonnet) [12] = assay: Postemergence herbicidal evaluation; assay type: in vivo, Oryza sativa, (L.) Tebonnet; settings: postemergence
Summary of the method: as §1

| SMILES | ABUTH herbicidal rating ([1]; rate 0.0320 kg/ha) | ABUTH herbicidal rating ([1]; rate 0.0620 kg/ha) | Preemergence herbicidal rating TRZAWR ([2]; Rate 0.0620 kg/ha) | Preemergence herbicidal rating TRZAWR ([2]; Rate 0.1250 kg/ha) | Preemergence herbicidal rating TRZAWR ([2]; Rate 0.2500 kg/ha) | CHEAL herbicidal rating ([3]; rate 0.0320 kg/ha) | CHEAL herbicidal rating ([3]; rate 0.0620 kg/ha) | CASOB herbicidal rating ([4]; rate 0.0320 kg/ha) | CASOB herbicidal rating ([4]; rate 0.0620 kg/ha) | AMBEL herbicidal rating ([5]; rate 0.0320 kg/ha) | AMBEL herbicidal rating ([5]; rate 0.0620 kg/ha) | GLXMAW herbicidal rating ([6]; rate 0.0320 kg/ha) | GLXMAW herbicidal rating ([6]; rate 0.0620 kg/ha) | GALAP herbicidal rating (GALAP (Galium aparine) [7]; rate 0.0320 kg/ha) | GALAP herbicidal rating (GALAP (Galium aparine) [7]; rate 0.0620 kg/ha) | Preemergence herbicidal rating ORYSAT (ORYSAT (Rice, Tebonnet) [8]; Rate 0.0620 kg/ha) | Preemergence herbicidal rating ORYSAT (ORYSAT (Rice, Tebonnet) [8]; Rate 0.1250 kg/ha) | Preemergence herbicidal rating ORYSAT (ORYSAT (Rice, Tebonnet) [8]; Rate 0.2500 kg/ha) | IPOHE herbicidal rating ([9]; rate 0.0320 kg/ha) | IPOHE herbicidal rating ([9]; rate 0.0620 kg/ha) | other results |
| --- | --- | --- | --- | --- | --- | --- | --- | --- | --- | --- | --- | --- | --- | --- | --- | --- | --- | --- | --- | --- | --- |
| Cn1c(C(F)(F)F)cc(=O)n(-c2ccc3snc(C4OCC(c5ccccc5)O4)c3c2)c1=O (stereo not drawn) [Compound 78, 1-methyl-3-[3-(4-phenyl-1,3-dioxolan-2-yl)-1,2-benzisothiazol-5-yl]-6-(trifluoromethyl)uracil] | 9.0 | 9.0 | 5.0 | 5.0 | 6.0 | 9.0 | 9.0 | 9.0 | 6.0 | 9.0 | 9.0 | 5.0 | 5.5 | 4.0 | 7.0 | 2.0 | 2.5 | 3.0 | 9.0 | 9.0 | ZEAMX herbicidal rating (ZEAMX (Corn, Field); rate 0.0320 kg/ha): 3.5; ZEAMX herbicidal rating (ZEAMX (Corn, Field); rate 0.0620 kg/ha): 3.5; Preemergence herbicidal rating ECHCG ([10]; Rate 0.0620 kg/ha): 8.5; Preemergence herbicidal rating ECHCG ([10]; Rate 0.1250 kg/ha): 9.0; Preemergence herbicidal rating ECHCG ([10]; Rate 0.2500 kg/ha): 8.0; Preemergence herbicidal rating SETVI (SETVI (Setaria viridis); Rate 0.0620 kg/ha): 9.0; Preemergence herbicidal rating SETVI (SETVI (Setaria viridis); Rate 0.1250 kg/ha): 9.0; Preemergence herbicidal rating SETVI (SETVI (Setaria viridis); Rate 0.2500 kg/ha): 9.0; Preemergence herbicidal rating GALAP (GALAP (Galium aparine) [11]; Rate 0.0620 kg/ha): 7.0; Preemergence herbicidal rating GALAP (GALAP (Galium aparine) [11]; Rate 0.1250 kg/ha): 7.0; Preemergence herbicidal rating GALAP (GALAP (Galium aparine) [11]; Rate 0.2500 kg/ha): 7.0; ORYSAT herbicidal rating (ORYSAT (Rice, Tebonnet) [12]; rate 0.0320 kg/ha): 4.0; ORYSAT herbicidal rating (ORYSAT (Rice, Tebonnet) [12]; rate 0.0620 kg/ha): 4.0 |
| Cn1c(C(F)(F)F)cc(=O)n(-c2ccc3snc(-c4sccc4CBr)c3c2)c1=O [Compound 80, 3-[3-[3-(bromomethyl)-2-thienyl]-1,2-benzisothiazol-5-yl]-1-methyl-6-(trifluoromethyl)uracil] | 6.0 | 9.0 | 0.0 | 0.0 | 2.0 | 9.0 | 9.0 | 5.0 | 5.0 | 7.0 | 9.0 | 5.0 | 7.0 | 3.0 | 4.0 | 0.5 | 2.5 | 6.0 | 9.0 | 9.0 | ZEAMX herbicidal rating (ZEAMX (Corn, Field); rate 0.0320 kg/ha): 3.5; ZEAMX herbicidal rating (ZEAMX (Corn, Field); rate 0.0620 kg/ha): 5.5; Preemergence herbicidal rating ECHCG ([10]; Rate 0.0620 kg/ha): 0.5; Preemergence herbicidal rating ECHCG ([10]; Rate 0.1250 kg/ha): 2.0; Preemergence herbicidal rating ECHCG ([10]; Rate 0.2500 kg/ha): 6.5; Preemergence herbicidal rating SETVI (SETVI (Setaria viridis); Rate 0.0620 kg/ha): 1.5; Preemergence herbicidal rating SETVI (SETVI (Setaria viridis); Rate 0.1250 kg/ha): 4.5; Preemergence herbicidal rating SETVI (SETVI (Setaria viridis); Rate 0.2500 kg/ha): 7.5; Preemergence herbicidal rating GALAP (GALAP (Galium aparine) [11]; Rate 0.0620 kg/ha): 4.0; Preemergence herbicidal rating GALAP (GALAP (Galium aparine) [11]; Rate 0.1250 kg/ha): 5.0; Preemergence herbicidal rating GALAP (GALAP (Galium aparine) [11]; Rate 0.2500 kg/ha): 7.0; ORYSAT herbicidal rating (ORYSAT (Rice, Tebonnet) [12]; rate 0.0320 kg/ha): 3.5; ORYSAT herbicidal rating (ORYSAT (Rice, Tebonnet) [12]; rate 0.0620 kg/ha): 3.5 |
